Test results: patent US7019123B2, “Human bikunin” (Bayer Corporation, priority 1996, dated 2006)

Legend:
Bovine chymotrypsin = Bovine chymotrypsin (Bos taurus, UniProt P00766); assay: Inhibition of chymotrypsin, AAPF-pNA substrate; assay type: biochemical; details: Chymotrypsin (5 nM), AAPF-pNA 0.08 mM
Factor XIIa = molecular target: T1, Factor XIIa (Homo sapiens, UniProt P00748); assay: Inhibition of Factor XIIa, PFR-AMC substrate; assay type: biochemical
T1 sequence (P00748 373-615 limits assumed): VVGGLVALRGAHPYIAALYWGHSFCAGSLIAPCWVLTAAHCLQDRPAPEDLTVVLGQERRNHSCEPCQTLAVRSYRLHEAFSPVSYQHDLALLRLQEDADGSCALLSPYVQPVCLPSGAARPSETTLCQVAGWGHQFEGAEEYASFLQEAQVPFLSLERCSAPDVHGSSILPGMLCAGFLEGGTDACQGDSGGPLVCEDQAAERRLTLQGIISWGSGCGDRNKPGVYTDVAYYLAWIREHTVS

Which Ki (Bovine chymotrypsin) does the source give for `CC[C@H](C)[C@H](N)C(=O)N[C@@H](Cc1c[nH]cn1)C(=O)N[C@@H](CC(=O)O)C(=O)N[C@@H](Cc1ccccc1)C(=O)N[C@H]1CSSC[C@@H](C(=O)N[C@@H](C)C(=O)N[C@H](C(=O)N[C@H](C(=O)O)C(C)C)[C@@H](C)O)NC(=O)[C@H](CCCCN)NC(=O)[C@H](CCCCN)NC(=O)[C@H](CC(C)C)NC(=O)[C@@H]2CSSC[C@@H]3NC(=O)[C@H](CO)NC(=O)CNC(=O)[C@H](CC(=O)O)NC(=O)[C@H]([C@@H](C)O)NC(=O)[C@H](C(C)C)NC(=O)[C@H](CC(N)=O)NC(=O)[C@H](Cc4ccc(O)cc4)NC(=O)[C@H](Cc4c[nH]c5ccccc45)NC(=O)[C@H](Cc4c[nH]c5ccccc45)NC(=O)[C@H](CCCNC(=N)N)NC(=O)[C@@H]4CCCN4C(=O)[C@H](CCSC)NC(=O)[C@H](CO)NC(=O)[C@H](C)NC(=O)[C@H](CCCNC(=N)N)NC(=O)[C@H](CSSC[C@H](NC(=O)CNC(=O)CNC(=O)[C@H](Cc4ccc(O)cc4)NC(=O)[C@H](C(C)C)NC(=O)[C@H](Cc4ccccc4)NC(=O)[C@H](CC(C)C)NC(=O)[C@H](CCC(N)=O)NC3=O)C(=O)N[C@@H](CC(=O)O)C(=O)NCC(=O)N[C@@H](CC(N)=O)C(=O)N[C@@H](CO)C(=O)N[C@@H](CC(N)=O)C(=O)N[C@@H](CC(N)=O)C(=O)N[C@@H](Cc3ccc(O)cc3)C(=O)N[C@@H](CC(C)C)C(=O)N[C@@H]([C@@H](C)O)C(=O)N[C@@H](CCCCN)C(=O)N[C@@H](CCC(=O)O)C(=O)N[C@@H](CCC(=O)O)C(=O)N2)NC(=O)[C@H](CCCNC(=N)N)NC(=O)CNC(=O)[C@H](C(C)C)NC(=O)[C@H](C(C)C)NC(=O)[C@H](CCCCN)NC(=O)[C@H](CO)NC(=O)[C@H](C(C)C)NC(=O)[C@H](CC(C)C)NC1=O` [bikunin (7–64)] here?
The Ki was 0.6 nM.

And the Ki (Factor XIIa)?
Its Ki is greater than 300 nM.
